Measured values from the NIST ThermoML archive (doi:10.1016/j.tca.2016.05.011).
± gives the expanded uncertainty stated by the source.

Assay: Boiling temperature at pressure P
Conditions: Liquid, DSC

## CC(C)(C)c1ccccc1O [2-tert-butyl-1-hydroxybenzene]
9.9 kPa
  Boiling temperature at pressure P: 145.4 ± 1.6 °C
19.82 kPa
  Boiling temperature at pressure P: 165.5 ± 2.6 °C
29.75 kPa
  Boiling temperature at pressure P: 178.6 ± 2.3 °C
49.63 kPa
  Boiling temperature at pressure P: 196.2 ± 3.1 °C
64.61 kPa
  Boiling temperature at pressure P: 206.1 ± 3.3 °C

## Cc1ccccc1 [toluene]
29.65 kPa
  Boiling temperature at pressure P: 72.4 ± 1.8 °C
49.44 kPa
  Boiling temperature at pressure P: 87.5 ± 2.5 °C
69.2 kPa
  Boiling temperature at pressure P: 98.0 ± 2.4 °C
101.6 kPa
  Boiling temperature at pressure P: 111.2 ± 3.2 °C
247.5 kPa
  Boiling temperature at pressure P: 145.5 ± 4.5 °C
